From US11420966B2 (ACLARIS THERAPEUTICS, INC., priority 2019, dated 2022)
Where a name gives a salt, the structure may show the parent alone.

Assays:
JAK2 = JAK2 (Homo sapiens (Human), UniProt O60674); assay: JAK2 enzyme activity assay (Thermo Fisher SelectScreen, Z-lyte); assay type: biochemical; settings: read-out: JAK2 Inhibition IC50
Description: (§1) JAK1, JAK2, JAK3, and Tyk-2 Enzyme Activity Assays
(§2) The inhibitory potency of candidate compounds of JAK1, JAK2, and Tyk-2 was done at Thermo Fisher Scientific in their Selectscreen using a Z-lyte assay. Following are the assay details for each enzyme.
JAK2: The 2×JAK2/Tyr 06 mixture is prepared in 50 mM HEPES pH 7.5, 0.01% BRIJ-35, 10 mM MgCl2, 1 mM EGTA. The final 10 μL Kinase Reaction consists of 0.12-0.5 ng JAK2 and 2 M Tyr 06 in 50 mM HEPES pH 7.5, 0.01% BRIJ-35, 10 mM MgCl2, 1 mM EGTA. After the one hour Kinase Reaction incubation, 5 μL of a 1:128 dilution of Development Reagent A is added.
(§3) Data reduction for JAK1, JAK2 and TYK2 is done the same, independent of the enzyme run. In summary, background signal is defined in the absence of enzyme and uninhibited signal is defined in the presence of vehicle (2% DMSO) alone. Compounds were evaluated in an 11 point dose-response ranging from […] to 0.34 nM. IC50 values of compounds are determined using a 4 parameter logistical fit of emission ratio as a function of the concentration of compound.

JAK3 (a.a. 781-1124) = JAK3 (a.a. 781-1124) (Homo sapiens (Human), UniProt P52333); assay: JAK3 enzyme activity assay (SRCtide phosphorylation, Caliper); assay type: biochemical; settings: 1 uM ATP; read-out: JAK3 Inhibition IC50
Chain of JAK3 (a.a. 781-1124) (P52333 781-1124): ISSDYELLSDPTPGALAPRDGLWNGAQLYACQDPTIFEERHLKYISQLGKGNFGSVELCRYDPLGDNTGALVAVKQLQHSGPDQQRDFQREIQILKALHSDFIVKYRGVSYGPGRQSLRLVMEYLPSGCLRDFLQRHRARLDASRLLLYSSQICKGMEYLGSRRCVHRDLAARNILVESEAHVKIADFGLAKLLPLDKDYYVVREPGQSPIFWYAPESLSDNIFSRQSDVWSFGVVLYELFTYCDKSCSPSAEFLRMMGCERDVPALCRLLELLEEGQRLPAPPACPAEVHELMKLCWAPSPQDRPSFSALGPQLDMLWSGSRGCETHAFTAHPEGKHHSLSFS
Description: as §1
Kinase reactions were run in a 384-well Greiner plate with 2% final DMSO concentration under the buffer conditions of 20 mM HEPES, pH 7.5, 10 mM MgCl2, 0.01% BSA, and 0.0005% Tween-20. The kinase reaction components were 2.5 nM JAK3, 1 μM SRCtide peptide and 1 uM ATP. Examples were tested in dose-response starting at 2 M (11 concentrations, 3-fold serial dilution, duplicate reactions). The reactions were incubated at room temperature for 40 minutes, then stopped by adding a 1:1 volume of 30 mM EDTA in 20 mM HEPES, pH 7.5 (15 mM EDTA final). After the reaction was stopped, the phosphorylated and unphosphorylated peptides were separated and quantified using a Caliper LC3000/EZ-Reader system and HTS Well Analyzer Software (Caliper, A PerkinElmer Company, Hopkinton, Mass.). GraFit (Erithacus Software Ltd., Horley, U.K.) was used to calculate inhibitor potency by fitting dose-response data to the 4-parameter logistical IC50 equation.

[1] = system: IL-2 stimulated STAT5 phosphorylation on Tyr694 (JAK1/3); assay: JAK1/3 cellular target modulation: IL-2 stimulated phospho-STAT5 in PBMC; assay type: cell-based; settings: human PBMC, IL-2 25 ng/ml; read-out: IL2-STAT5 IC50
Text: (§4) JAK Cellular Target Modulation Assays
(§5) Target modulation was based upon the ability of a compound to inhibit JAK isoform specific phosphorylation of selected substrates. IL-2 stimulated STAT5 phosphorylation on Tyr694 was used to assess JAK1/3 compound selectivity. GM-CSF stimulated STAT5 phosphorylation on Tyr694 was used to assess JAK2 compound selectivity. IFNγ stimulated STAT1 phosphorylation on Tyr701 was used to assess JAK1/2 compound selectivity. IL-12 stimulated STAT4 phosphorylation on Tyr693 was used to assess JAK2/TYK2 compound selectivity. For all four assays, human PBMC from frozen stocks were thawed, pelleted, resuspended in complete media (90% RPMI, 10% heat inactivated FBS, 10 mM HEPES, 47 μM 2-ME, pen/strep) and placed in wells of a 96 well V-bottom plate at 200,000 per well in 120 μl complete media. Compounds were added as 15 μl per well of 10× working stock solutions in complete media with 1% DMSO (or medium with 1% DMSO for controls) and placed on a plate shaker in a 37° C. incubator with 5% CO2 for 1 hour with gentle shaking (setting of 3). Stimulation used the addition of soluble cytokines. For the JAK1/3 phospho-STAT5 assay, 15 μl of 10× working stock recombinant human IL-2 was added to a final concentration of 25 ng/ml. For the JAK2 phospho-STAT5 assay, 15 μl of 10× working stock recombinant human GM-CSF was added to a final concentration of 5 ng/ml. For the JAK1/2 phospho-STAT1 assay, 15 μl of 10× working stock of recombinant human IFNγ was added to a final concentration of 10 ng/ml. For the JAK2/TYK2 phospho-STAT4 assay, 15 μl of 10× working stock of recombinant human IL-12 was added to a final concentration of 1.7 ng/ml. Plates were then placed back on the plate shaker in the incubator for an additional 5, 5, 10, and 25 minutes respectively upon which the plates were removed from the incubator, sealed with a plate sealer and the cells pelleted at 400×g for 5 minutes. After pelleting, the media was removed by aspiration and the cells were lysed in assay specific cell lysis buffer. The levels of phospho-STATS were determined using a Phospho (Tyr694) STAT5a,b Whole Cell Lysate kit from Meso Scale Discovery. Levels of phospho-STAT1 were determined using a CST-PathScan Phospho-STAT1 (Tyr701) Sandwich ELISA kit. Levels of phospho-STAT4 were determined using a Phospho-STAT4 (Tyr693) Whole Cell Lysate kit from Meso Scale Discovery.

[2] = system: IFNγ stimulated STAT1 phosphorylation on Tyr701 (JAK1/2); assay: JAK1/2 cellular target modulation: IFNγ stimulated phospho-STAT1 in PBMC; assay type: cell-based; settings: human PBMC, IFNγ 10 ng/ml; read-out: Infγ-STAT1 IC50
Text: as §4, §5

JAK1 = JAK1 (Homo sapiens (Human), UniProt P23458); assay: JAK1 enzyme activity assay (Thermo Fisher SelectScreen, Z-lyte); assay type: biochemical; settings: read-out: JAK1 Inhibition IC50
Chain of JAK1 (P23458 whole entry): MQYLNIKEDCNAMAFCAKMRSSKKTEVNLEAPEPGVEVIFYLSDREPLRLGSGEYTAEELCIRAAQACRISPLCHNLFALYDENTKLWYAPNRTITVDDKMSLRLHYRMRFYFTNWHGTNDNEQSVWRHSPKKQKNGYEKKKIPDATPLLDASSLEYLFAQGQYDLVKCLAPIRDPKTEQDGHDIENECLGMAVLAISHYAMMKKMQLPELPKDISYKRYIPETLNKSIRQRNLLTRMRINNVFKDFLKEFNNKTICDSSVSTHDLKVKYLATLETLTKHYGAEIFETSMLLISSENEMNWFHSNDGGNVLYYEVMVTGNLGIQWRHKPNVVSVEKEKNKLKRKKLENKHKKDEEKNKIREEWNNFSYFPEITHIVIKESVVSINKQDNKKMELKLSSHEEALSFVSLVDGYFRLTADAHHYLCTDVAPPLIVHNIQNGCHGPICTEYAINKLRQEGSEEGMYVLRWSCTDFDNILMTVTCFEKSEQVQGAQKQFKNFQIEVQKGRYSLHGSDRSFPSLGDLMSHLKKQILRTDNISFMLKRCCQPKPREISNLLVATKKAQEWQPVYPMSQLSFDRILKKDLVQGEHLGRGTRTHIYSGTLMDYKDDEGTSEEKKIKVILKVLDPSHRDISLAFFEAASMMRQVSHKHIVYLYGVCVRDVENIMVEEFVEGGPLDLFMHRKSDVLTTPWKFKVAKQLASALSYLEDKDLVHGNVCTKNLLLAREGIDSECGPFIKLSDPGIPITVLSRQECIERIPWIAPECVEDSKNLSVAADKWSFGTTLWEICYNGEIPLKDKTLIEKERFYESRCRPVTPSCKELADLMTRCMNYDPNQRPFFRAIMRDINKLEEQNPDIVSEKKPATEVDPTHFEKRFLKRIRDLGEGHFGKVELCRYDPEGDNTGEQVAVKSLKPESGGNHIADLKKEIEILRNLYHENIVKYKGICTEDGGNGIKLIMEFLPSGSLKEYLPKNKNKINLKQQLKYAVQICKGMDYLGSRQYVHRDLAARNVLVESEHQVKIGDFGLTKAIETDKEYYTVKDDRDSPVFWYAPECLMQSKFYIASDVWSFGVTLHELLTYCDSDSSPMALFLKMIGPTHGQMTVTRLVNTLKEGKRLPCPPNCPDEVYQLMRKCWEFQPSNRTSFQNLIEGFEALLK
Description: as §1, §2
JAK: The 2×JAK-enzyme/Tyr 06 mixture is prepared in 50 mM HEPES pH 6.5, 0.01% BRIJ-35, 10 mM MgCl2, 1 mM EGTA, 0.02% NaN3. The final 10 μL of the Kinase Reaction consists of 21.2-91.5 ng JAK and 2 M Tyr 06 in 50 mM HEPES pH 7.0, 0.01% BRIJ-35, 10 mM MgCl2, 1 mM EGTA, 0.01% NaN3. After the one hour Kinase Reaction incubation, 5 μL of a 1:128 dilution of Development Reagent is added.
as §3

Tyk-2 = Tyk-2 (Homo sapiens (Human), UniProt P29597); assay: Tyk-2 enzyme activity assay (Thermo Fisher SelectScreen, Z-lyte); assay type: biochemical; settings: read-out: Tyk-2 Inhibition IC50
Chain of Tyk-2 (P29597 whole entry): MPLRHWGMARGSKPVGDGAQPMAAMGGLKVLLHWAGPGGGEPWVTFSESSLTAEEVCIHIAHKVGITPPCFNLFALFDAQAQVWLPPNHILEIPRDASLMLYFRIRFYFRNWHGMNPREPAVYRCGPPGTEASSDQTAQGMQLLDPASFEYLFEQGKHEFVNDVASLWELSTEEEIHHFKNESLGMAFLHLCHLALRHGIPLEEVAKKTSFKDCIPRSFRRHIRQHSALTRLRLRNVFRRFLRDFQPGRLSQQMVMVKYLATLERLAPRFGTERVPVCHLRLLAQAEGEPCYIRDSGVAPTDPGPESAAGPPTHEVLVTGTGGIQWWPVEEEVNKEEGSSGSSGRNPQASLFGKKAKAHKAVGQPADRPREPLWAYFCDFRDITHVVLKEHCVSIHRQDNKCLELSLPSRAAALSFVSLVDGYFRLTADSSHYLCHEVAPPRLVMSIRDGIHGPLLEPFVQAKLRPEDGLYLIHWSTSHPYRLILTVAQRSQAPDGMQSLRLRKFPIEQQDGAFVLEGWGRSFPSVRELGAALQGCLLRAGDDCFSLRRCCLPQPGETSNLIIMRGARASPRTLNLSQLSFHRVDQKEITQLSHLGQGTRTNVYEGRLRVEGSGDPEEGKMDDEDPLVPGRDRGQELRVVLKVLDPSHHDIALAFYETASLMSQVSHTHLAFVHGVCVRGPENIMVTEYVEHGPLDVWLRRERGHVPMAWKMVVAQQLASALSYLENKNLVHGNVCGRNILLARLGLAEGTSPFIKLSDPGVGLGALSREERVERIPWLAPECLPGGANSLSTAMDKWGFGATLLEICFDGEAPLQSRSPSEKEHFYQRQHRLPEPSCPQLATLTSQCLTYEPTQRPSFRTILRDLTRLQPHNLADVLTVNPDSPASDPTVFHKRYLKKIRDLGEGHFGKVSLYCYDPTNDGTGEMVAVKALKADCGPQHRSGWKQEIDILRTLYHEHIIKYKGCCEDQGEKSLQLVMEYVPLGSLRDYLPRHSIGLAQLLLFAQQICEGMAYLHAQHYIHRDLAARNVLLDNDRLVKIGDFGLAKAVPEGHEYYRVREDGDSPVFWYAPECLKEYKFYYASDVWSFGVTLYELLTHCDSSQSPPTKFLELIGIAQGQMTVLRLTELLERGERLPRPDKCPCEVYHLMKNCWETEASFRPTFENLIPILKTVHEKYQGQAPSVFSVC
Description: as §1, §2
TYK2: The 2×TYK2/Tyr 03 mixture is prepared in 50 mM HEPES pH 6.5, 0.01% BRIJ-35, 10 mM MgCl2, 1 mM EGTA, 0.02% NaN3. The final 10 μL Kinase Reaction consists of 3.75-15 ng TYK2 and 2 M Tyr 03 in 50 mM HEPES pH 7.0, 0.01% BRIJ-35, 10 mM MgCl2, 1 mM EGTA, 0.01% NaN3. After the one hour KinaseReaction incubation, 5 μL of a 1:4096 dilution of Development Reagent A is added.
as §3

Chain of JAK2 (O60674 whole entry): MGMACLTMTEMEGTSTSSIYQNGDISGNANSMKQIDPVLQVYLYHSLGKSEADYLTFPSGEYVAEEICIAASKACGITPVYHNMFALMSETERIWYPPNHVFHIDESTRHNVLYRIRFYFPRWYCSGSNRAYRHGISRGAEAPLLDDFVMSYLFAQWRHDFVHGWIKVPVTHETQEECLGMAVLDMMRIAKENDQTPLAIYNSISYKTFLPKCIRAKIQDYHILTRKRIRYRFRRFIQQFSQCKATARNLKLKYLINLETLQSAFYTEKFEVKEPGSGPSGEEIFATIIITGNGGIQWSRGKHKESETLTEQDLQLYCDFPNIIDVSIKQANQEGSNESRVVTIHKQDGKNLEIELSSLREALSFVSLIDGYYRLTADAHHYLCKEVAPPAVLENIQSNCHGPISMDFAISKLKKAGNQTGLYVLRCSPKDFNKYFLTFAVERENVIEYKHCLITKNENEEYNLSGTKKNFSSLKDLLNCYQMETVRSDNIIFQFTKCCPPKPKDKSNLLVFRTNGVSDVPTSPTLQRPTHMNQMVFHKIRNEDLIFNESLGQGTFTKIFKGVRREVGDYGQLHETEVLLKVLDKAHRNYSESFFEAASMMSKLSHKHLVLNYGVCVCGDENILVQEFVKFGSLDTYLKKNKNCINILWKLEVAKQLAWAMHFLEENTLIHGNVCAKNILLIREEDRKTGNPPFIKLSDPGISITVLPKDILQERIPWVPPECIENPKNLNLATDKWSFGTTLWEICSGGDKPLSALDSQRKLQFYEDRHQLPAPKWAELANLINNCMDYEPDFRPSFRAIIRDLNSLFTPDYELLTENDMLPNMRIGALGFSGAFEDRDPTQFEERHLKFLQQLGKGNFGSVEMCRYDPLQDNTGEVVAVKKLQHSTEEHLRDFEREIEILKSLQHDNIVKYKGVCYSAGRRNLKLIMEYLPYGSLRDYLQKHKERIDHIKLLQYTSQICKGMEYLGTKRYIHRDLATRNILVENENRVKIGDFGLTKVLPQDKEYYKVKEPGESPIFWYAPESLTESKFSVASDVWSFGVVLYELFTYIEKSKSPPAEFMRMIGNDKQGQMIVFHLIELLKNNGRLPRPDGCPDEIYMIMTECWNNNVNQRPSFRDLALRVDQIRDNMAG

IC50 (JAK2)	IC50 (JAK3 (a.a. 781-1124))	IC50 [1]	IC50 [2]	IC50 (JAK1)	IC50 (Tyk-2)	Structure (SMILES)
10 to 100 nM	10 to 100 nM	100 to 1000 nM	100 to 1000 nM	10 to 100 nM	10 to 100 nM	N#CCC(=O)N1CCC[C@@H](Nc2c(-c3cscn3)cnc3[nH]ccc23)C1 [Example 1, (R)-3-oxo-3-(3-((5-(thiazol-4-yl)-1H-pyrrolo[2,3-b]pyridin-4-yl)amino)piperidin-1-yl)propanenitrile]
100 to 1000 nM	10 to 100 nM	100 to 1000 nM	> 1000 nM	10 to 100 nM	100 to 1000 nM	Cc1ncc(-c2cnc3[nH]ccc3c2N[C@@H]2CCCN(C(=O)CC#N)C2)s1 [Example 3, (R)-3-(3-((5-(2-methylthiazol-5-yl)-1H-pyrrolo[2,3-b]pyridin-4-yl)amino)piperidin-1-yl)-3-oxopropanenitrile]
10 to 100 nM	10 to 100 nM	> 1000 nM	> 1000 nM	10 to 100 nM	100 to 1000 nM	N#CCC(=O)N1CCC[C@@H](Nc2c(-c3nnc[nH]3)cnc3[nH]ccc23)C1 [Example 11, (R)-3-(3-((5-(4H-1,2,4-triazol-3-yl)-1H-pyrrolo[2,3-b]pyridin-4-yl)amino)piperidin-1-yl)-3-oxopropanenitrile]
100 to 1000 nM	10 to 100 nM	100 to 1000 nM	> 1000 nM	100 to 1000 nM	100 to 1000 nM	O[C@H]1CC[C@@H](Nc2c(-c3ccccn3)cnc3[nH]ccc23)C1 [Example 12, (1S,3R)-3-((5-(pyridin-2-yl)-1H-pyrrolo[2,3-b]pyridin-4-yl)amino)cyclopentan-1-ol]
10 to 100 nM	≤ 10 nM	100 to 1000 nM	> 1000 nM	≤ 10 nM	10 to 100 nM	N#CCC(=O)N1CCC[C@@H](Nc2c(-c3nc(C(N)=O)co3)cnc3[nH]ccc23)C1 [Example 14, (R)-2-(4-((1-(2-cyanoacetyl)piperidin-3-yl)amino)-1H-pyrrolo[2,3-b]pyridin-5-yl)oxazole-4-carboxamide]
100 to 1000 nM	10 to 100 nM	100 to 1000 nM	> 1000 nM	10 to 100 nM	100 to 1000 nM	N#CCC(=O)N1CCC[C@@H](Nc2c(-c3cncs3)cnc3[nH]ccc23)C1 [Example 16, (R)-3-oxo-3-(3-((5-(thiazol-5-yl)-1H-pyrrolo[2,3-b]pyridin-4-yl)amino)piperidin-1-yl)propanenitrile]
10 to 100 nM	10 to 100 nM	≤ 100 nM	100 to 1000 nM	≤ 10 nM	10 to 100 nM	N#CCC(=O)N1CCC[C@@H](Nc2c(C#N)cnc3[nH]ccc23)C1 [Example 25, (R)-4-((1-(2-cyanoacetyl)piperidin-3-yl)amino)-1H-pyrrolo[2,3-b]pyridine-5-carbonitrile]
≤ 10 nM	≤ 10 nM	> 1000 nM	> 1000 nM	10 to 100 nM	10 to 100 nM	CNC(=O)c1cnc(-c2cnc3[nH]ccc3c2N[C@@H]2CCCN(C(=O)CC#N)C2)o1 [Example 39, (R)-2-(4-((1-(2-cyanoacetyl)piperidin-3-yl)amino)-1H-pyrrolo[2,3-b]pyridin-5-yl)-N-methyloxazole-5-carboxamide]
≤ 10 nM	≤ 10 nM	≤ 100 nM	≤ 100 nM	≤ 10 nM	≤ 10 nM	CNC(=O)c1cnc(-c2cnc3[nH]ccc3c2N[C@@H]2CCCN(C(=O)CC#N)C2)s1 [Example 53, (R)-2-(4-((1-(2-cyanoacetyl)piperidin-3-yl)amino)-1H-pyrrolo[2,3-b]pyridin-5-yl)-N-methylthiazole-5-carboxamide]
100 to 1000 nM	10 to 100 nM	100 to 1000 nM	> 1000 nM	≤ 10 nM	100 to 1000 nM	CNCCOc1cccc(-c2cnc3[nH]ccc3c2N[C@@H]2CCCN(C(=O)CC#N)C2)n1 [Example 58, (R)-3-(3-((5-(6-(2-(methylamino)ethoxy)pyridin-2-yl)-1H-pyrrolo[2,3-b]pyridin-4-yl)amino)piperidin-1-yl)-3-oxopropanenitrile hydrochloride]
100 to 1000 nM	100 to 1000 nM	100 to 1000 nM	> 1000 nM	≤ 10 nM	> 1000 nM	CS(=O)(=O)c1cccc(-c2cnc3[nH]ccc3c2N[C@@H]2CCCN(C(=O)CC#N)C2)c1 [Example 59, (R)-3-(3-((5-(3-(methylsulfonyl)phenyl)-1H-pyrrolo[2,3-b]pyridin-4-yl)amino)piperidin-1-yl)-3-oxopropanenitrile]
10 to 100 nM	≤ 10 nM	≤ 100 nM	100 to 1000 nM	≤ 10 nM	10 to 100 nM	CC(=O)c1cnc(-c2cnc3[nH]ccc3c2N[C@@H]2CCCN(C(=O)CC#N)C2)o1 [Example 66, (R)-3-(3-((5-(5-acetyloxazol-2-yl)-1H-pyrrolo[2,3-b]pyridin-4-yl)amino)piperidin-1-yl)-3-oxopropanenitrile]
